Assay results: publication PMC5421785, “Citrullination only infrequently impacts peptide binding to HLA class II MHC” (PLoS ONE, 2017)
Where two headings read alike, the source gives them in different places.

Experiments:
HLA-DRB1*04:01 = target: T1, HLA-DRB1*04:01 (Homo sapiens, UniProt P01903+P01911, A100K/A169T/F76Y/I96L/K127E/L162R/M171V/N62H/P40V/Q125Y/R42H/S133A/S149N/S66Y/V115G/V209L/W38E); experiment: HLA class II peptide binding, inhibition of radiolabeled peptide binding to purified MHC; conditions: read-out: DRB1*04:01 binding capacity, WT peptide (IC50 nM)
T1 construct: EBV transformed homozygous cell lines were used as sources of MHC molecules; endogenous in cells; host or cells: EBV transformed homozygous cell lines

HLA-DRB1*01:01 = target: T2, HLA-DRB1*01:01 (Homo sapiens, UniProt P01903+P01911, A100R/D57E/F55L/F60I/F76Y/I96L/L162R/M171V/P40L/Q125E/R42F/V115G/Y59C); experiment: as above; conditions: read-out: DRB1*01:01 binding capacity, WT peptide (IC50 nM)
T2 construct: EBV transformed homozygous cell lines were used as sources of MHC molecules; endogenous in cells; host or cells: EBV transformed homozygous cell lines

[1] = wild-type (unmodified Arg) 15-mer peptide, purified HLA-DRB1*04:01
[2] = wild-type (unmodified Arg) 15-mer peptide, purified HLA-DRB1*01:01

IC50 (HLA-DRB1*04:01) | IC50 (HLA-DRB1*01:01) | IC50 (HLA-DRB1*04:01; [1]) | IC50 (HLA-DRB1*01:01; [2]) | Structure (SMILES)
> 40000 nM | 3070 nM | – | – | CC[C@H](C)[C@H](NC(=O)[C@H](Cc1ccc(O)cc1)NC(=O)[C@H](CC(N)=O)NC(=O)[C@H](C)NC(=O)[C@H](Cc1ccccc1)NC(=O)[C@H](CCCNC(=N)N)NC(=O)[C@H](CC(=O)O)NC(=O)[C@H](CC(N)=O)NC(=O)[C@H](CC(C)C)NC(=O)[C@H](CCC(=O)O)NC(=O)[C@H](CCC(N)=O)NC(=O)[C@H](CC(C)C)NC(=O)[C@@H](N)CCC(=O)O)C(=O)N[C@@H](CC(=O)O)C(=O)N[C@@H](CCCCN)C(=O)O [Vimentin 106 WT]
513 nM | 5.7 nM | – | – | CC[C@H](C)[C@H](NC(=O)[C@H](CCCCN)NC(=O)[C@H](CC(N)=O)NC(=O)[C@H](CCC(N)=O)NC(=O)[C@H](CCC(N)=O)NC(=O)[C@H](CCC(=O)O)NC(=O)[C@H](CC(C)C)NC(=O)[C@H](Cc1ccccc1)NC(=O)[C@H](CCCNC(=N)N)NC(=O)[C@@H](N)C(C)C)C(=O)N[C@@H](CC(C)C)C(=O)N[C@@H](CC(C)C)C(=O)N[C@@H](C)C(=O)N[C@@H](CCC(=O)O)C(=O)N[C@@H](CC(C)C)C(=O)O [Vimentin 121 WT]
– | – | 1220 nM | 192 nM | CC[C@H](C)[C@H](NC(=O)[C@H](CC(=O)O)NC(=O)[C@H](CC(C)C)NC(=O)[C@H](C)NC(=O)[C@H](CCSC)NC(=O)[C@H](CCCCN)NC(=O)[C@@H](NC(=O)[C@H](CC(N)=O)NC(=O)[C@H](CC(C)C)NC(=O)[C@H](CC(C)C)NC(=O)[C@H](CC(=O)O)NC(=O)[C@H](CCC(N)=O)NC(=O)[C@H](Cc1ccc(O)cc1)NC(=O)[C@H](CCC(=O)O)NC(=O)[C@@H](N)CCCNC(=N)N)C(C)C)C(=O)O [Vimentin 381 WT]

Second part, the compound before the results:

Structure (SMILES) | IC50 (HLA-DRB1*04:01) | IC50 (HLA-DRB1*01:01) | IC50 (HLA-DRB1*04:01; [1]) | IC50 (HLA-DRB1*01:01; [2])
CC(C)C[C@H](NC(=O)[C@@H](N)CO)C(=O)N[C@@H](Cc1ccc(O)cc1)C(=O)N[C@@H](C)C(=O)N[C@@H](CO)C(=O)N[C@@H](CO)C(=O)N1CCC[C@H]1C(=O)NCC(=O)NCC(=O)N[C@H](C(=O)N[C@@H](Cc1ccc(O)cc1)C(=O)N[C@@H](C)C(=O)N[C@H](C(=O)N[C@@H](CCCNC(=N)N)C(=O)N[C@@H](CO)C(=O)O)[C@@H](C)O)C(C)C [Vimentin 51 WT] | 6110 nM | 75 nM | – | –
CC(C)C[C@H](NC(=O)[C@H](CO)NC(=O)[C@H](Cc1ccccc1)NC(=O)[C@H](CC(=O)O)NC(=O)[C@@H](NC(=O)[C@H](CO)NC(=O)[C@H](CC(=O)O)NC(=O)[C@H](CCC(N)=O)NC(=O)[C@H](CC(C)C)NC(=O)[C@H](CC(C)C)NC(=O)[C@H](CCCNC(=N)N)NC(=O)[C@@H](NC(=O)CN)C(C)C)C(C)C)C(=O)N[C@@H](C)C(=O)N[C@@H](CC(=O)O)C(=O)O [Vimentin 76 WT] | 596 nM | 358 nM | – | –
CC(C)C[C@H](NC(=O)[C@H](CCCNC(=N)N)NC(=O)[C@H](CO)NC(=O)[C@H](CCCCN)NC(=O)CNC(=O)[C@H](CCC(N)=O)NC(=O)CNC(=O)[C@H](CCCCN)NC(=O)[C@H](CC(C)C)NC(=O)[C@H](CCC(N)=O)NC(=O)[C@@H](N)CCC(=O)O)C(=O)NCC(=O)N[C@@H](CC(=O)O)C(=O)N[C@@H](CC(C)C)C(=O)N[C@@H](Cc1ccc(O)cc1)C(=O)O [Vimentin 136 WT] | > 40000 nM | 3720 nM | – | –
CSCC[C@H](NC(=O)[C@H](CCC(=O)O)NC(=O)[C@H](CCC(=O)O)NC(=O)[C@H](CCC(=O)O)NC(=O)[C@H](Cc1ccc(O)cc1)NC(=O)[C@H](CC(C)C)NC(=O)[C@H](CC(=O)O)NC(=O)CNC(=O)[C@@H](N)CC(C)C)C(=O)N[C@@H](CCCNC(=N)N)C(=O)N[C@@H](CCC(=O)O)C(=O)N[C@@H](CC(C)C)C(=O)N[C@@H](CCCNC(=N)N)C(=O)N[C@@H](CCCNC(=N)N)C(=O)N[C@@H](CCC(N)=O)C(=O)O [Vimentin 146 WT] | 38500 nM | 9380 nM | – | –
CC[C@H](C)[C@H](NC(=O)[C@H](CCC(=O)O)NC(=O)[C@H](CC(=O)O)NC(=O)[C@@H](N)CCC(N)=O)C(=O)N[C@@H](CCC(N)=O)C(=O)N[C@@H](CC(N)=O)C(=O)N[C@@H](CCSC)C(=O)N[C@@H](CCCCN)C(=O)N[C@@H](CCC(=O)O)C(=O)N[C@@H](CCC(=O)O)C(=O)N[C@@H](CCSC)C(=O)N[C@@H](C)C(=O)N[C@@H](CCCNC(=N)N)C(=O)N[C@@H](Cc1c[nH]cn1)C(=O)N[C@@H](CC(C)C)C(=O)O [Vimentin 366 WT] | – | – | 4550 nM | 7110 nM
CSCC[C@H](NC(=O)[C@H](CCC(=O)O)NC(=O)[C@H](CCC(=O)O)NC(=O)[C@H](CCCCN)NC(=O)[C@H](CCSC)NC(=O)[C@@H](N)CC(N)=O)C(=O)N[C@@H](C)C(=O)N[C@@H](CCCNC(=N)N)C(=O)N[C@@H](Cc1c[nH]cn1)C(=O)N[C@@H](CC(C)C)C(=O)N[C@@H](CCCNC(=N)N)C(=O)N[C@@H](CCC(=O)O)C(=O)N[C@@H](Cc1ccc(O)cc1)C(=O)N[C@@H](CCC(N)=O)C(=O)N[C@@H](CC(=O)O)C(=O)O [Vimentin 371 WT] | – | – | > 40000 nM | 3020 nM
